The source of these data is publication PMC7980952 (Clinical cancer research : an official journal of the …, 2019).

Entries after “also recorded” stand apart in the source; their conditions may differ. Where two headings read alike, the source gives them in different places.

In data set [1] the test system is IDO. As to conditions: ref Siu et al. 2017; cited from earlier work.
The nature of data set [2]: Navoximod plasma pharmacokinetics. It is filed as in vivo, human. As to conditions: for PK profile (linearity, dose proportionality): 50–1000 mg BID oral, with atezolizumab; for Tmax: human, plasma, po, 50–1000 mg BID.
The subject of data set [3] is locally advanced or metastatic solid tumors. The data set can be described thus: Tumor response by investigators per RECIST v1.1. The class given is in vivo, human. To be noted: with atezolizumab; for ORR in IDO1 0 patients / ORR in PDL1 0 patients / ORR in PDL1 IHC 1/2/3 patients / ORR in IDO1 IHC 1/2/3 patients / ORR in all patients: expansion.
The test system of data set [4] is IDO1. The data set can be described thus: Plasma Kyn as peripheral biomarker of IDO1 activity. The class given is in vivo, human.
For data set [5] the following is noted: in vivo.
The subject of data set [6] is preclinical tumor models. As to conditions: combination with anti-PD-L1 vs single agents; ref Spahn et al. 2015; cited from earlier work.
The subject of data set [7] is solid tumors. As to conditions: ref Nayak et al. 2018, cited from earlier work.
Data set [8] in a line: Phase Ib safety assessments: adverse events. As to conditions: in combination with atezolizumab.
In data set [9] the test system is melanoma. As to conditions: ref Long et al. 2018, cited from earlier work.
Setting [10] is: Phase 1a, 22 patients with solid tumors.

For `C[C@@H](C(=O)Nc1ccc(Cl)cc1)C1CCC(c2ccnc3ccc(F)cc23)CC1` (some centres unmarked) [BMS-986205], the “In vitro potency compared with epacadostat and navoximod” value in data set [1] is reported as “greater in vitro potency”.
On to `O[C@H](C[C@H]1c2c(F)cccc2-c2cncn21)[C@H]1CC[C@H](O)CC1` [Navoximod], for which the “PK profile (linearity, dose proportionality)” value in [2] was “linear PK profile; also recorded: dose-proportional and linear PK”; in data set [2] (listed as navoximod) it was “dose-proportional and linear PK profile”. Moreover, the figures for the Tmax in data set [2] (Tmax range) and in data set [2] (median Tmax) were 0.25 to 4 h and around 1 h, respectively. Further, the “PK in combination with atezolizumab compared with single agent” value in [2] (in vivo) is listed as “consistent with single-agent PK observations”. Further, the “Partial response (PR), best overall response” value in data set [3] (dose escalation, all patients (n=66)) amounted to 9%. Moreover, the “ORR in IDO1 0 patients” value in data set [3] (All Patients, n=19) is listed as 0 (0%) Responders (%); in [3] (Biopsy A (CIT naïve), n=3) it was 0 (0%) Responders (%); in data set [3] (Biopsy B (CIT naïve), n=4), 0 (0%) Responders (%); in data set [3] (NSCLC (CIT naïve), n=8) it was 0 (0%) Responders (%); in data set [3] (NSCLC (relapsed), n=1) it was 0 (0%) Responders (%); in [3] (RCC (CIT naïve), n=0) it was 0 (0%) Responders (%). Also, the “ORR in IDO1 0 patients” value was 0 (0%) Responders (%) in [3] (TNBC (CIT naïve), n=3) and 0 (0%) Responders (%) in data set [3] (UBC (CIT naïve), n=0). The “ORR in PDL1 0 patients” value is reported as 0 (0%) Responders (%) in [3] (All Patients, n=27); 0 (0%) Responders (%) in data set [3] (Biopsy A (CIT naïve), n=5); 0 (0%) Responders (%) in [3] (Biopsy B (CIT naïve), n=4); 0 (0%) Responders (%) in [3] (NSCLC (CIT naïve), n=11); 0 (0%) Responders (%) in [3] (NSCLC (relapsed), n=4); 0 (0%) Responders (%) in [3] (RCC (CIT naïve), n=0). Also, the “ORR in PDL1 0 patients” value in [3] (TNBC (CIT naïve), n=3) is given as 0 (0%) Responders (%); in data set [3] (UBC (CIT naïve), n=0), 0 (0%) Responders (%). Also, the “ORR in PDL1 IHC 1/2/3 patients” value in [3] (All Patients, n=60) is reported as 9 (15%) Responders (%); in [3] (Biopsy A (CIT naïve), n=6) it was 0 (0%) Responders (%); in data set [3] (Biopsy B (CIT naïve), n=8), 1 (12%) Responders (%); in [3] (NSCLC (CIT naïve), n=14) it was 2 (14%) Responders (%); in [3] (NSCLC (relapsed), n=11), 0 (0%) Responders (%); in data set [3] (RCC (CIT naïve), n=7), 3 (43%) Responders (%). The “ORR in PDL1 IHC 1/2/3 patients” value is 1 (12%) Responders (%) in data set [3] (TNBC (CIT naïve), n=8) and 2 (33%) Responders (%) in data set [3] (UBC (CIT naïve), n=6). The “ORR in IDO1 IHC 1/2/3 patients” value is listed as 9 (13%) Responders (%) in [3] (All Patients, n=68); 0 (0%) Responders (%) in [3] (Biopsy A (CIT naïve), n=8); 1 (12%) Responders (%) in [3] (Biopsy B (CIT naïve), n=8); 2 (12%) Responders (%) in data set [3] (NSCLC (CIT naïve), n=17); 0 (0%) Responders (%) in [3] (NSCLC (relapsed), n=14); 3 (43%) Responders (%) in data set [3] (RCC (CIT naïve), n=7). The “ORR in IDO1 IHC 1/2/3 patients” value in data set [3] (TNBC (CIT naïve), n=8) is on record as 1 (12%) Responders (%); in data set [3] (UBC (CIT naïve), n=6), 2 (33%) Responders (%). The “ORR in all patients” value in [3] (All Patients, n=91) is reported as 10 (11%) Responders (%); in data set [3] (Biopsy A (CIT naïve), n=11), 0 (0%) Responders (%); in data set [3] (Biopsy B (CIT naïve), n=12), 1 (8%) Responders (%); in data set [3] (NSCLC (CIT naïve), n=26), 2 (8%) Responders (%); in data set [3] (NSCLC (relapsed), n=16), 0 (0%) Responders (%); in data set [3] (RCC (CIT naïve), n=7), 3 (43%) Responders (%). The “ORR in all patients” value is 1 (9%) Responders (%) in data set [3] (TNBC (CIT naïve), n=11) and 3 (38%) Responders (%) in [3] (UBC (CIT naïve), n=8). The “Mean change in plasma Kyn from the pre-dose baseline” value in data set [4] (patients receiving at least 200 mg navoximod) is on record as “decreased at all post-dose timepoints beyond 1 hour”. The “Change in plasma Kyn” value in data set [4] (relative to Cycle 1 Day 1 pre-dose levels) is “generally decreased with increasing doses”. The “Chromaturia, treatment-related AE” value in [5] (human) is on record as 20%. In data set [5] (human), the “Discontinuations due to treatment related AEs” value came out at 9%. Further, the “Fatigue, treatment-related AE” value in data set [5] (human) amounted to 22%. Further, in data set [5] (human), the “Grade ≥ 3 treatment-related AEs” value amounted to 22%. Further, the “Grade ≥ 3 treatment-related rash” value in [5] (human) came out at 9%. The “Patients who discontinued treatment due to rash” value in [5] (human) is given as 4%. For the same molecule, in data set [5] (human), the “Pink colored urine (chromaturia)” value is on record as “up to 20%”. Further, in data set [5] (human), the Rash overall result is given as “around 20%”. Moreover, in data set [5] (human), the “Rash, treatment-related AE” value is 22%. In addition, in [5] (human), the “Treatment related serious AEs” value is listed as 10%. The “Relationship between dose and incidence or severity of AEs” value in data set [5] is on record as “no clear relationship”. In addition, in [5], the “Tolerability of the combination” value is “generally well-tolerated”. Also, the “Activation of intratumoral CD8+ T cells and tumor growth inhibition” value in data set [6] was “more effectively activates intratumoral CD8+ T cells and inhibits tumor growth compared to either single agent alone”. The “Clinical activity as a single agent” value in data set [7] (setting [10]) is “limited clinical activity”. Further, the “Tolerability as a single agent” value in data set [7] (setting [10]) was “generally well-tolerated”. For the same molecule, in data set [7], the “Hepatic adverse events, single agent” value is given as “Hepatic adverse events had been reported”. Moreover, the MTD entry in [8] was “not reached; also recorded: not identified; also recorded: No MTD was defined”.
In the case of pembrolizumab, in [9] (pembrolizumab monotherapy), the mPFS is 4.9 mo.
For the molecule `NS(=O)(=O)NCCNc1nonc1C(=NO)Nc1ccc(F)c(Br)c1` [epacadostat], in data set [9] (epacadostat in combination with pembrolizumab), the mPFS was 4.7 mo.

A word on the Tmax: it is the time from dosing to the highest level.
